Results from patent US20240209028A1, “CNP COMPOUNDS” (priority 2022, published 2024).
Starred links: 1 amine or outer side, 2 acyl side, 3 side chain; linkers in the order of their positions; H or OH if unused. Positions of bridges follow the written chain, without caps; N, C: chain ends. Residues, ends and D or L forms follow the SMILES beside them. *: point of attachment. C18 diacid = O=C(O)CCCCCCCCCCCCCCCCC(=O)*; γGlu = O=C(O)[C@H](CCC(=O)[*:2])N[*:1]; AEEA = NCCOCCOCC(=O)O

Molecular target: T1, human natriuretic peptide receptor 2 (hNPR2) (Homo sapiens, UniProt P20594)
T1 construct: expressed in transfected cells; host or cells: HEK293 (ATCC CRL-1573), clone 35, co-transfected with pGloSensor-42F
T1 sequence (P20594 23-1047): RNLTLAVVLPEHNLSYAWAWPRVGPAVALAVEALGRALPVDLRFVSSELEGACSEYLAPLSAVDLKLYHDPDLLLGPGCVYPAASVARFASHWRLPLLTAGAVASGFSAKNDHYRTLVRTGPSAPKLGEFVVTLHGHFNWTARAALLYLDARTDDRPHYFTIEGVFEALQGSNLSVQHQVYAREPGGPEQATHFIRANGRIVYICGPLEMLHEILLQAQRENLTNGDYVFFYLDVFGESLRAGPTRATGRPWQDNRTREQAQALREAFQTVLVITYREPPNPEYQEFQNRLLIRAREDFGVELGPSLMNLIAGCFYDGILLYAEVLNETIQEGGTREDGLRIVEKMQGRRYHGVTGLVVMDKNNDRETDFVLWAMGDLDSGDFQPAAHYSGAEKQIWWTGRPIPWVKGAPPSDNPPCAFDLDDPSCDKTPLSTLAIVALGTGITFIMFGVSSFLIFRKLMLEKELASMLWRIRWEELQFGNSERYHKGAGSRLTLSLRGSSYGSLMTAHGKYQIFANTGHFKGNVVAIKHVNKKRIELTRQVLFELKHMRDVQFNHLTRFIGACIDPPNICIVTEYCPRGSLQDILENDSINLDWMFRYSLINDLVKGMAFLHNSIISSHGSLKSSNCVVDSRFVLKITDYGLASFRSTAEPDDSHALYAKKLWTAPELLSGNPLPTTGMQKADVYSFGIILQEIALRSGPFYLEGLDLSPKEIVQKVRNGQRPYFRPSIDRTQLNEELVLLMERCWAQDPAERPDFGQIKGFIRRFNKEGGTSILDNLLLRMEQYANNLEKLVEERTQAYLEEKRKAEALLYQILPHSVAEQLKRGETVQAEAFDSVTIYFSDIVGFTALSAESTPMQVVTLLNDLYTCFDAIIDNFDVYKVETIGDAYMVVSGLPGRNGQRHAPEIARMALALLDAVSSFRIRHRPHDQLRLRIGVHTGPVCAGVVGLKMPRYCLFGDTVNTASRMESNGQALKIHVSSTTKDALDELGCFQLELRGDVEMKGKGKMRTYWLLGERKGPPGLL
Test: In vitro hNPR2 activity assay (cGMP GloSensor reporter, HEK293)
Format: cell-based
Conditions: for hNPR2 0% HSA. [EC50% rel CNP]: potency relative to CNP22 (0065)
Procedure, shortened: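 Potency is the EC50 from a four-parameter logistic fit, also expressed relative to the in-plate CNP22 control (×100), with at least two replicates. Compounds (ten concentrations, […], HSA-free diluent with 1% OVA, 0.01% Tween20) were incubated 30 min at 37 °C on HEK293 cells co-expressing hNPR2 and a GloSensor cGMP luciferase. Luminescence detected with Bright-Glo.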

SMILES	hNPR2 0% HSA. [EC50% rel CNP]	EC50 (0% HSA, HEK293-hNPR2/GloSensor cells)
CC[C@H](C)[C@@H]1NC(=O)[C@H](CCCNC(=N)N)NC(=O)[C@H](CC(=O)O)NC(=O)[C@H](CC(C)C)NC(=O)[C@@H]2CCCN2C(=O)[C@H](CC(C)C)NC(=O)CNC(=O)[C@H](Cc2ccccc2)NC(=O)[C@@H](NC(=O)CNC(=O)[C@H](CCC(N)=O)NC(=O)[C@H](CO)NC(=O)[C@H](CC(C)C)NC(=O)CNC(=O)[C@H](CCCCN)NC(=O)[C@H](CCCCN)NC(=O)[C@H](CCC(N)=O)NC(=O)[C@H](C)NC(=O)CNC(=O)[C@H](CCCCN)NC(=O)[C@H](Cc2ccc(O)cc2)NC(=O)[C@H](CCCCN)NC(=O)[C@H](CCCNC(=N)N)NC(=O)[C@H](C)NC(=O)COCCOCCNC(=O)COCCOCCNC(=O)CC[C@H](NC(=O)CC[C@H](NC(=O)CC[C@H](NC(=O)CC[C@H](NC(=O)CC[C@H](NC(=O)CCCCCCCCCCCCCCCCC(=O)O)C(=O)O)C(=O)O)C(=O)O)C(=O)O)C(=O)O)CSSC[C@@H](C(=O)O)NC(=O)CNC(=O)[C@H](CC(C)C)NC(=O)CNC(=O)[C@H](CO)NC(=O)[C@H](CC(C)C)NC(=O)[C@H](CO)NC(=O)CNC1=O [compound 1453] ({C18 diacid-γGlu-γGlu-γGlu-γGlu-γGlu-AEEA-AEEA}-ARKYKGAQKKGLSQGCFGLPLDRIGSLSGLGC-OH; disulfide 16-32)	33.5%	
CC[C@H](C)[C@@H]1NC(=O)[C@H](CCCNC(=N)N)NC(=O)[C@H](CCC(=O)O)NC(=O)[C@H](CC(C)C)NC(=O)[C@@H]2CCCN2C(=O)[C@H](CC(C)C)NC(=O)CNC(=O)[C@H](Cc2ccccc2)NC(=O)[C@@H](NC(=O)CNC(=O)[C@H](CO)NC(=O)[C@H](CO)NC(=O)[C@H](CC(C)C)NC(=O)CNC(=O)[C@H](CCCCN)NC(=O)[C@H](CCCCN)NC(=O)[C@H](CCC(N)=O)NC(=O)[C@H](C)NC(=O)CNC(=O)[C@H](CCCCN)NC(=O)[C@H](Cc2ccc(O)cc2)NC(=O)[C@H](CCCCN)NC(=O)[C@H](CCCNC(=N)N)NC(=O)[C@H](C)NC(=O)[C@H](CCC(N)=O)NC(=O)[C@@H]2CCCN2C(=O)[C@H](Cc2c[nH]cn2)NC(=O)[C@H](CCC(=O)O)NC(=O)[C@H](CCC(N)=O)NC(=O)CC[C@H](NC(=O)CC[C@H](NC(=O)CC[C@H](NC(=O)CC[C@H](NC(=O)CCCCCCCCCCCCCCCCC(=O)O)C(=O)O)C(=O)O)C(=O)O)C(=O)O)CSSC[C@@H](C(=O)O)NC(=O)CNC(=O)[C@H](CC(C)C)NC(=O)CNC(=O)[C@H](CO)NC(=O)[C@H](CC(C)C)NC(=O)[C@H](CO)NC(=O)CNC1=O [compound 9483] ({C18 diacid-γGlu-γGlu-γGlu-γGlu}-QEHPQARKYKGAQKKGLSSGCFGLPLERIGSLSGLGC-OH; disulfide 21-37)	10.2%	0.3 nM
CC[C@H](C)[C@@H]1NC(=O)[C@H](CCCNC(=N)N)NC(=O)[C@H](CC(=O)O)NC(=O)[C@H](CC(C)C)NC(=O)[C@@H]2CCCN2C(=O)[C@H](CC(C)C)NC(=O)CNC(=O)[C@H](Cc2ccccc2)NC(=O)[C@@H](NC(=O)CNC(=O)[C@H](CCC(N)=O)NC(=O)[C@H](CO)NC(=O)[C@H](CC(C)C)NC(=O)CNC(=O)[C@H](CCCCN)NC(=O)[C@H](CCCCN)NC(=O)[C@H](CCC(N)=O)NC(=O)[C@H](C)NC(=O)CNC(=O)[C@H](CCCCN)NC(=O)[C@H](Cc2ccc(O)cc2)NC(=O)[C@H](CCCCN)NC(=O)[C@H](CCCNC(=N)N)NC(=O)[C@H](C)NC(=O)[C@H](CCC(N)=O)NC(=O)[C@@H]2CCCN2C(=O)[C@H](Cc2c[nH]cn2)NC(=O)[C@H](CCC(=O)O)NC(=O)[C@H](CCC(N)=O)NC(=O)COCCOCCNC(=O)COCCOCCNC(=O)CC[C@H](NC(=O)CC[C@H](NC(=O)CC[C@H](NC(=O)CC[C@H](NC(=O)CC[C@H](NC(=O)CC[C@H](NC(=O)CCCCCCCCCCCCCCCCC(=O)O)C(=O)O)C(=O)O)C(=O)O)C(=O)O)C(=O)O)C(=O)O)CSSC[C@@H](C(=O)O)NC(=O)CNC(=O)[C@H](CC(C)C)NC(=O)CNC(=O)[C@H](CO)NC(=O)[C@H](CC(C)C)NC(=O)[C@H](CO)NC(=O)CNC1=O [compound 1402] ({C18 diacid-γGlu-γGlu-γGlu-γGlu-γGlu-γGlu-AEEA-AEEA}-QEHPQARKYKGAQKKGLSQGCFGLPLDRIGSLSGLGC-OH; disulfide 21-37)	57.6%	
